Source: patent US6818203B2, “Use of perfluoroalkyl-containing metal complexes as contrast media in MR-imaging for visualization of plaque, tumors and necroses” (Schering Aktiengesellschaft, priority 2000, dated 2004)
Several values for one entry are separate records, joined by “and”; a condition that tells them apart may be missing. Equal values may be shown once.

Assays:
[1] = critical micelle formation concentration (CMC) by tensiometry; format: physicochemical
Description: In aqueous systems, these amphiphilic molecules show the properties that are characteristic of standard surfactants (such as, e.g., sodium dodecylsulfate, SDS). They thus reduce the surface tension of water. By tensiometry, the so-called CMC (critical micelle formation concentration in mol/l) can be determined. In this respect, the surface tension is determined based on the concentration of the substance to be measured. The CMC can be calculated from the plot of the surface tension function (c) that is obtained. The critical micelle formation concentration of the compounds according to the invention must be <10^−3 mol/l, preferably <10^−4 mol/l.
(§1) Both the determination of the CMC and the photon correlation spectroscopy are described in H.-D. Dörfler, “Grenzflächen- und Kolloidchemie [Interface and Colloid Chemistry],” Weinheim, New York, Basel, Cambridge, Tokyo, VSH 1994.

[2] = hydrodynamic micelle diameter (2 Rh) by photon correlation spectroscopy (PCS); format: physicochemical
Excerpt: The amphiphilic compounds according to the invention are combined in solution and are present as aggregates. The size (2 Rh) of such aggregates (e.g., micelles, rods, wafers, etc.) can be determined with the aid of […] (PCS).
As a second criterion, the hydrodynamic micelle diameter 2 Rh, which must be >1 nm, is therefore used. Those perfluoroalkyl-containing metal complexes according to the invention whose 2 RH is ≧3, quite especially preferably >4 nm, are especially suitable.
as §1

[3] = proton relaxivity in plasma (R^1), Minispec P 20; format: physicochemical; settings: 40° C., 0.47 tesla, bovine plasma
Description: As a third criterion, the proton-relaxivity in plasma (R^1) at 40° C. and a field strength of 0.47 tesla is used. The relaxivity, which is indicated in [l/mmol·s], is the quantitative measurement for the shortening of relaxation time T^1 of the protons. For the purpose according to the invention, the relaxivity must be as high as possible and >10 l/mmol·s, preferably >13 l/mmol·s, especially preferably >15 l/mmol·s.
Relaxivity R^1 [l/mmol·s] of the MR-contrast media according to the invention was determined with the Minispec P 20 device of the Bruker Company. The measurements were taken at 40° C. and a field strength of 0.47 tesla. Eight measuring points were recorded by each T1-sequence: 180°-TI-90°, inversion recovery. As a medium, bovine plasma of the Kraeber Company was used. The contrast medium concentrations [mmol/l] in the batches were between 0.30 and 1.16.

[4] = tested on: primary tumor (VX2-tumor implanted i.m.); test: tumor visualization (MRT) after intravenous administration in VX2-tumor-bearing rabbits; format: in vivo; settings: 100 μmol of Gd/kg i.v.
Description: The pictures of FIG. 6 show MR images of an iliac lymph node and of a primary tumor (VX2-tumor implanted i.m.) precontrast, 60 minutes and 20 hours after intravenous administration of 100 μmol of Gd/kg of body weight of metal complex I in rabbits. […]

iliac lymph nodes = test: lymph node visualization (MRT) after intravenous administration in VX2-tumor-bearing rabbits; format: in vivo; settings: 100 μmol of Gd/kg i.v.; 60 minutes and 20 hours
Description: The pictures of FIG. 6 show MR images of an iliac lymph node and of a primary tumor (VX2-tumor implanted i.m.) precontrast, 60 minutes and 20 hours after intravenous administration of 100 μmol of Gd/kg of body weight of metal complex I in rabbits. […] The enhancement in the healthy lymph node tissue was 382% at the time of 15 minutes p.i. and 419% at the time of 60 minutes p.i. […] The ratio of signal intensities of healthy lymph node tissue to metastasis was 3.0 at the time of 15 minutes p.i. and 3.4 at the time of 60 minutes p.i. […] The enhancement in the healthy lymph node tissue was 246% at the time of 15 minutes p.i. and 282% at the time of 60 minutes p.i. […] The ratio of signal intensities of healthy lymph node tissue to metastasis was 2.5 at the time of 15 minutes p.i. and 1.7 at the time of 60 minutes p.i. […] The enhancement in the healthy lymph node tissue was 297% at the time of 10 minutes p.i. and 269% at the time of 60 minutes p.i. […] The ratio of signal intensities of healthy lymph node tissue to metastasis was 5.1 at the time of 10 minutes p.i. and 1.9 at the time of 60 minutes p.i. […] The enhancement in the healthy lymph node tissue was 195% at the time of 15 minutes p.i. and 233% at the time of 60 minutes p.i. […] The ratio of signal intensities of healthy lymph node tissue to metastasis was 1.9 at the time of 15 minutes p.i. and 1.8 at the time of 60 minutes p.i.

myocardial infarction = test: infarction visualization (MRT) after intravenous administration in rats with acutely induced myocardial infarction; format: in vivo; settings: 24 hours after i.v. 100 μmol of Gd/kg
Excerpt: The successful induction of an acute myocardial infarction was confirmed by means of NBT-staining.

infarcted tissue = settings: cited from earlier work

Row | Molecule | CMC (critical micelle formation concentration) [1] [mol/L] | 2 Rh (hydrodynamic micelle diameter) [2] [nm] | R^1 Plasma (relaxivity) [3] [mmol⁻¹ s⁻¹] | further results
1 | COCCOCCOCCOCCOCCN(CCOCCC(F)(F)C(F)(F)C(F)(F)C(F)(F)C(F)(F)C(F)(F)C(F)(F)C(F)(F)F)C(=O)CNC(=O)C(C)N1CCN(CC(=O)[O-])CCN(CC(=O)[O-])CCN(CC(=O)[O-])CC1.[Gd+3] (centres unmarked) [metal complex VII] | 5.2e-05 | 3.0 | 30.3 | 
2 | CCN(CCCCCC(=O)NCC(O)CN1CCN(CC(=O)[O-])CCN(CC(=O)[O-])CCN(CC(=O)[O-])CC1)S(=O)(=O)C(F)(F)C(F)(F)C(F)(F)C(F)(F)C(F)(F)C(F)(F)C(F)(F)C(F)(F)F.[Gd+3] (centres unmarked) [metal complex XII, Gadolinium complex of 10-[2-hydroxy-4-aza-5-oxo-11-aza-11-(perfluorooctyl-sulfonyl)-tridecyl]-1,4,7-tris(carboxymethyl) 1,4,7,10-tetraazacyclododecane] | 1.07e-05 | 7.4 | 30.5 | 
3 | gadolinium-mesoporphyrin [Gd-MP] |  |  |  | ratio of the signal intensities during MRI for infarcted tissue in comparison to healthy tissue (infarcted tissue; infarcted kidney and myocardium (both cases)): 2.10 and 2.19; metal content of the infarcted organ compared with non-infarcted (infarcted tissue; kidney (Example 3 of WO 95/31219)): as high as that of the non-infarcted organ; metal content in the infarcted tissue compared with non-infarcted (infarcted tissue; myocardium (Example 1 of WO 95/31219)): nine times as high
4 | CC(C(=O)NCC(=O)NCCCC[C@H](NC(=O)CNC(=O)C(C)N1CCN(CC(=O)[O-])CCN(CC(=O)[O-])CCN(CC(=O)[O-])CC1)C(=O)N1CCN(S(=O)(=O)C(F)(F)C(F)(F)C(F)(F)C(F)(F)C(F)(F)C(F)(F)C(F)(F)C(F)(F)F)CC1)N1CCN(CC(=O)[O-])CCN(CC(=O)[O-])CCN(CC(=O)[O-])CC1.[Gd+3].[Gd+3] (some centres unmarked) [metal complex XVI] | 3.9e-05 | 4.9 | 21.3 | 
5 | O=C([O-])CN1CCN(CC(=O)[O-])CCN(CC(O)CNC(=O)COCCC(F)(F)C(F)(F)C(F)(F)C(F)(F)C(F)(F)C(F)(F)C(F)(F)C(F)(F)C(F)(F)C(F)(F)F)CCN(CC(=O)[O-])CC1.[Gd+3] (centres unmarked) [metal complex XI, Gadolinium complex of 10-[2-hydroxy-4-aza-5-oxo-7-oxa-10,10,11,11,12,12,13,13,14,14,15,15,16,16,17,17,18,18,19,19-henicosafluoro-nonadecyl]-1,4,7-tris(carboxymethyl)-1,4,7,10-tetraazacyclododecane] | 2.88e-06 | 35.5 | 24.8 | 
6 | O=C([O-])CN1CCN(CC(=O)[O-])CCN(CC(O)COCCC(F)(F)C(F)(F)C(F)(F)C(F)(F)C(F)(F)C(F)(F)C(F)(F)C(F)(F)F)CCN(CC(=O)[O-])CC1.[Gd+3] (centres unmarked) [metal complex VI, Gadolinium complex of 10-[2-hydroxy-4-oxa-1H,1H,2H,2H,3H,3H,5H,5H,6H,6H-perfluorotetradecyl]-1,4,7-tris(carboxymethyl)-1,4,7,10-tetraazacyclododecane] | 1.44e-05 | 3.2 | 27.5 | 
7 | O=C([O-])CN1CCN(CC(=O)[O-])CCN(CC(O)CNC(=O)COCCC(F)(F)C(F)(F)C(F)(F)C(F)(F)C(F)(F)C(F)(F)C(F)(F)C(F)(F)F)CCN(CC(=O)[O-])CC1.[Gd+3] (centres unmarked) [metal complex II, Gadolinium complex of 10-[2-hydroxy-4-aza-5-oxo-7-oxa-10,10,11,11,12,12,13,13,14,14,15,15,16,16,17,17-heptadecafluoroheptadecyl]-1,4,7-tris (carboxymethyl)-1,4,7,10-tetraazacyclododecane] | 2.3e-05 | 14 | 33 | 

More lines, main results first:

Row | CMC (critical micelle formation concentration) [1] [mol/L] | 2 Rh (hydrodynamic micelle diameter) [2] [nm] | R^1 Plasma (relaxivity) [3] [mmol⁻¹ s⁻¹] | Molecule | further results
8 | 1.86e-06 | 4.6 | 35.7 | CC(C(=O)NCC(=O)N1CCN(S(=O)(=O)C(F)(F)C(F)(F)C(F)(F)C(F)(F)C(F)(F)C(F)(F)C(F)(F)C(F)(F)F)CC1)N1CCN(CC(=O)[O-])CCN(CC(=O)[O-])CCN(CC(=O)[O-])CC1.[Gd+3] (centres unmarked) [metal complex I, Gadolinium complex of 10-[1-methyl-2-oxo-3-aza-5-oxo-{4-perfluorooctyl-sulfonyl-piperazin-1-yl}-pentyl]-1,4,7-tris(carboxymethyl)-1,4,7,10-tetraazacyclododecane] | enhancement of the primary tumor (especially the periphery) ([4]; 60 minutes p.i.): considerable enhancement; course of the signal rise of the primary tumor ([4]; 20 hours p.i.): propagated in the more central region of the tumor; enhancement of a pathological structure (optionally secondary tumor or necrosis) on the contralateral side ([4]; late images): late enhancement; signal in healthy lymph node tissue (T1-weighted gradient-echo images) (iliac lymph nodes): strong signal rise; signal in the infarction area (T1-weighted spin-echo images) (myocardial infarction): strong signal rise
9 | 2.92e-05 | 25 | 21.2 | CC(C(=O)NCC(=O)N(CCOCCO)CCOCCC(F)(F)C(F)(F)C(F)(F)C(F)(F)C(F)(F)C(F)(F)C(F)(F)C(F)(F)F)N1CCN(CC(=O)[O-])CCN(CC(=O)[O-])CCN(CC(=O)[O-])CC1.[Gd+3] (centres unmarked) [metal complex VIII] | 
10 | 3.25e-06 | 4.3 | 34.0 | O=C([O-])CN1CCN(CC(=O)[O-])CCN(CC(O)CNC(=O)CN(Cc2ccccc2)S(=O)(=O)C(F)(F)C(F)(F)C(F)(F)C(F)(F)C(F)(F)C(F)(F)C(F)(F)C(F)(F)F)CCN(CC(=O)[O-])CC1.[Gd+3] (centres unmarked) [metal complex XIII, Gadolinium complex of 10-[2-hydroxy-4-aza-5-oxo-7-aza-7-(perfluorooctyl-sulfonyl)-8-phenyl-octyl]-1-4-7-tris(carboxymethyl)-1,4,7,10-tetraazacyclododecane] | 
11 | 2.65e-06 | 6.0 | 13.3 | CC(C(=O)NCC(=O)NCCOCCOCCOCCCNC(=O)COCCC(F)(F)C(F)(F)C(F)(F)C(F)(F)C(F)(F)C(F)(F)C(F)(F)C(F)(F)F)N1CCN(CC(=O)[O-])CCN(CC(=O)[O-])CCN(CC(=O)[O-])CC1.[Gd+3] (centres unmarked) [metal complex IX] | 
12 | 1e-06 | 31.5 | 29.7 | CCN(CC(=O)NCC(O)CN1CCN(CC(=O)[O-])CCN(CC(=O)[O-])CCN(CC(=O)[O-])CC1)S(=O)(=O)C(F)(F)C(F)(F)C(F)(F)C(F)(F)C(F)(F)C(F)(F)C(F)(F)C(F)(F)F.[Gd+3] (centres unmarked) [metal complex IV, Gadolinium complex of 10-[2-hydroxy-4-aza-5-oxo-7-aza-7-(perfluorooctyl-sulfonyl)-nonyl]-1,4,7-tris (carboxymethyl)-1,4,7,10-tetraazacyclododecane] | 
